Source: US12492222B2, “Lipophilic enantiomers of desacetylglucosamine muramyl dipeptide with anti-inflammatory and growth promoting activity” (Nutrivert Inc., priority 2020, dated 2025)
Peptide text beside a SMILES is read from it.

Legend:
broiler chickens = assay: Growth rate and feed conversion in broiler chickens fed supplemented feed; assay type: in vivo; conditions: for feed conversion rate at constant body weight gain: LDPP 0.2 mg/kg feed, bacitracin 50 mg/kg feed
Protocol: The objective of this experiment was to evaluate if supplementation of feed with L-lactate-D-alanine-L-glutamine palmityl ester (LDPP) at 0.2 mg/kg feed increases the growth rate and/or improves the feed conversion in broiler chickens, i.e., if it promotes growth by making broiler chickens grow faster and/or require less feed for the same amount of gain in body weight. A secondary objective was to compare the effect of LDPP to that of bacitracin, an industry-standard growth promoting antibiotic.
Freshly hatched female Ross 708 broiler chickens were housed for as single flock for 21 days on a floor pen with used bedding. All chickens received crumbled untreated standard Aviagen 708 starter and grower feeds during this time, with 80% recommended crude protein and without anti-coccidial supplement. After 3 weeks, the chickens were grouped into 38 replicate floor pens of 25 chickens with fresh bedding. Chickens were fed for 24 days from day 21 through termination on day 44 standard crumbled finisher Aviagen 708 finisher feed with 100% protein and 0.0125% amprolium anti-coccidial inclusion. Feed and water were available ad libitum throughout the trial. Thirteen pens each were assigned to untreated controls (feed without supplement) and LDPP-treatment (0.2 mg LDPP/kg feed), and 12 pens were assigned to bacitracin treatment (50 mg bacitracin/kg feed). The experimental unit was the pen rather than individual chickens. Pen weights of chickens were determined on day 21 and 44. Finisher feed uptake was be recorded, and on day 44 residual feed was determined, and the experiment was terminated.
For constant time analyses of the complete 24-day duration of the feeding experiment, the overall (true) feed conversion for each treatment group was determined by dividing total consumed feed by total weight gains of all pens of each treatment group.
For constant body weight gain analyses, the time on feed of the bacitracin and LDPP treated groups was modeled to match the weight gain of the untreated control group. Based on the closely matching body weights and weight gains of standard female Ross 708 broilers, body weight gains per chicken on the last day 44 of the experiment were calculated as the 0.04781 fraction of pen body weight gain day 21-44/surviving chickens per pen. […] Similarly, feed consumption per chicken on day 44 was calculated as the 0.05867 fraction of pen feed uptake day 21-44/surviving chickens per pen. Mean feed uptake per treatment group was then calculated by subtracting the previously found fractional daily feed uptake from each pen.
Body weight gain and feed consumption data were analyzed by one-way ANOVA and Tukey […] connection for multiple comparisons. Group differences in feed conversion rates were evaluated from pen FCR data by non-parametric Mann Whitney U test.

nursery pigs = assay: Growth rate and feed conversion in freshly weaned nursery pigs fed supplemented feed; assay type: in vivo; conditions: 0.2 mg/kg feed
Protocol: The objective of this experiment was to evaluate if supplementation of feed with L-lactate-D-alanine-L-glutamine palmityl ester (LDPP) at 0.2 mg/kg feed increases the growth rate and/or improves the feed conversion in freshly weaned nursery pigs.
Male pigs (barrows) were used in this study. Pigs were weaned at approximately 3 weeks of age, transferred to the nursery, and randomly allotted to 24 nursery pens with 4 pigs per pen. One of 2 dietary treatments, untreated controls (feed without supplement) or LDPP-treatment (0.2 mg LDPP/kg feed), was assigned to each pen, such that 12 pens of 4 pigs were used to evaluate the effect of each diet. Premixes of the treatment compounds were added at 0.1% to mixed diets, which were then pelleted. Phase 1 diet was fed at 6 lb/pig from day 0 to approximately day 8 post-weaning. On day 8 post-weaning, pigs were switched to 12 lb/pig Phase 2 diet which expired approximately on day 18. Once the Phase 2 diet had been consumed, pigs were switched to Phase 3 diet and maintained until termination of the study on day 42. No antibiotics were added to any diet. Diets were formulated to meet or exceed all the nutrient requirements based on the 2012 NRC specifications. Pigs received diets and water ad libitum. Pigs were weighed individually on days 0 and 42 of the experiment. Feed intake per pen was monitored for the weigh period. Although individual pig weights were obtained, the pen was the experimental unit. On day 42, the study was terminated and untreated pigs were retained in the food chain while the treatment pigs were euthanized.
Pen data were converted into individual pig data by dividing by the number of pigs. For three pens in which pigs were euthanized, a time-fractional pig number was used. Body weight gain and calculated feed consumption data were analyzed by pairwise T-test. The overall (true) feed conversion for each treatment was determined by dividing total consumed feed by total weight gains of all pens of each treatment. Treatment differences in feed conversion were statistically evaluated by non-parametric Mann Whitney U test of pen feed conversion data.
For constant body weight gain analyses, the time on feed of the LDPP treated group was modeled to match the weight gain of the untreated control group. Daily body weights and weight gains were modeled by linear interpolation between weights on days 0 and 42. […] From interpolated daily body weight data, daily feed consumption was first calculated as 5% of body weight. The sum of these daily feed uptakes was then divided by the actual weighed feed uptake of each pen, and daily feed uptakes were multiplied by this fraction to arrive at the precise weighed feed uptake per pen. These calculated daily feed uptakes were used to calculate feed uptake by changed times on feed for the LDPP treatment group. Mean feed uptake of the LDPP treatment group was then calculated by subtracting for each pen the previously found day 42 and 41 and the fractional day 40 feed uptake.
Body weight gain and feed consumption data were analyzed by one-way ANOVA and Student's T-test. Differences in feed conversion rates were evaluated from pen FCR data by non-parametric Mann Whitney U test.

[1] = modeled, 1,653 g constant weight gain

SMILES	feed conversion rate at constant time (broiler chickens; 0.2 mg/kg feed, 24 days, total consumed feed / total weight gain, untreated 1.818)	morbidity and mortality rates between groups (broiler chickens; 0.2 mg/kg feed, day 21-44)	body weight gain per chicken (broiler chickens; 0.2 mg/kg feed, day 21-44 (24 days constant time))	increase of weight gain versus untreated control chickens (broiler chickens; 0.2 mg/kg feed, day 21-44 (24 days constant time), control 1,653 g) [%]	improvement of feed conversion rate at constant body weight gain versus untreated (broiler chickens; 0.2 mg/kg feed, modeled constant weight gain) [%]	time on feed required for weight gain identical to untreated controls (broiler chickens; 0.2 mg/kg feed, modeled, 1,653 g constant weight gain, controls 24 days) [days]	feed conversion rate at constant body weight gain (broiler chickens; [1])	improvement of feed conversion rate at constant time versus untreated (nursery pigs; 42 days) [%]	feed conversion rate at constant time (nursery pigs; 42 days, total consumed feed / total weight gain, untreated 1.479)	morbidity and mortality rates between groups (nursery pigs; day 0-42)	body weight gain per pig (nursery pigs; day 0-42 (constant time)) [kg]	increase of weight gain versus untreated nursery pigs (nursery pigs; day 0-42 (constant time), control 22.076 kg) [%]	improvement of feed conversion rate at constant body weight gain versus untreated (nursery pigs; modeled constant weight gain) [%]	more rapid growth compared to controls (nursery pigs; modeled constant weight gain) [days]	feed conversion rate at constant body weight gain (nursery pigs; modeled, 22.076 kg constant weight gain)	time on feed required for weight gain identical to untreated controls (nursery pigs; modeled, 22.076 kg constant weight gain, controls 42 days) [days]
CCCCCCCCCCCCCCCCOC(=O)[C@H](CCC(N)=O)NC(=O)[C@@H](C)NC(=O)[C@H](C)O [LDPP, hexadecyl (2S)-5-amino-2-[[(2R)-2-[[(2S)-2-hydroxypropanoyl]amino]propanoyl]amino]-5-oxo-pentanoate]	1.805	did not differ significantly	1,725 g	4.4	1.7	23.13	1.787	3.8	1.423	did not differ significantly	23.826	7.9	5.5	2.1	1.396	39.921
CC[C@H](C)[C@H](N)C1=N[C@H](C(=O)N[C@@H](CC(C)C)C(=O)N[C@H](CCC(=O)O)C(=O)N[C@H](C(=O)N[C@H]2CCCCNC(=O)[C@H](CC(N)=O)NC(=O)[C@@H](CC(=O)O)NC(=O)[C@H](Cc3cnc[nH]3)NC(=O)[C@@H](Cc3ccccc3)NC(=O)[C@H]([C@@H](C)CC)NC(=O)[C@@H](CCCN)NC2=O)[C@@H](C)CC)CS1 [bacitracin, reference compound] (HELM PEPTIDE1{[CC[C@H](C)[C@H](N)C1=N[C@H](C(=O)[*:2])CS1].L.[dE].I.K.[NCCC[C@@H](N[*:1])C(=O)[*:2]].I.[dF].H.[dD].N}$PEPTIDE1,PEPTIDE1,5:R3-11:R2$$$V2.0)							1.827									
